# Measurements: patent publication US10716783B2, “Prolylhydroxylase/ATF4 inhibitors and methods of use for treating neural cell injury or death and conditions resulting therefrom” (CORNELL UNIVERSITY, priority 2013, dated 2020)
# “Also recorded” adds a separate entry of the source.
# Tests used:
# [1] = tested on: HIF PHDs; assay: ODD-luciferase reporter mice, in vivo bioluminescence imaging and tissue lysates; conditions: for ODD-luciferase activity in brain: in vivo bioluminescence imaging, intraperitoneal; for ODD-luciferase activity in lysates from different brain regions: normalized to total protein, luminometer
# From the text: FIGS. 3A-3G. Validation of adaptoquin as a novel HIF PHD inhibitor. […] Under steady state conditions, activity of HIF PHD2 with its co-substrate 2-oxoglutarate involves two peaks that represent non-hydroxylated and hydroxylated peptide. The hydroxylated peptide disappears in the presence of HIF PHD2 inhibition by adaptoquin. […] The reporter contains the ODD domain of HIF-1 which confers HIF PHD regulated stability on it. It is expressed in all cells of the body, but is destabilized in the absence of HIF PHD inhibition and stabilized in its presence. Quantitative measurements confirm stability of the ODD-luc in brain, kidney and liver (FIGS. 3D and 3E.).
# To identify HIF PHD inhibitors suitable for testing in ICH, the experiment first sought to identify which of the known HIF PHD inhibitors could penetrate the blood brain barrier to inhibit HIF PHD activity in the CNS. To monitor HIF PHD activity dynamically, the experiment utilized mice that had previously been engineered to ubiquitously express the oxygen degradation domain (ODD) of HIF-1α fused to firefly luciferase. The ODD domain contains proline 402 and 564, which are hydroxylated by the HIF PHDs to degrade HIF-1 or the ODD-luciferase. Accordingly, these mice have been used previously to track HIF PHD activity in diverse organs in vivo using in vivo bioluminescence imaging.
# To verify that the changes in light in the brain reflect parenchymal changes in ODD-luciferase levels rather than increases in changes in skin or dural ODD-luciferase, ODD-luciferase activity was measured normalized to total protein in lysates from distinct brain regions using a luminometer.
# [2] = tested on: intracerebral hemorrhage (autologous blood infusion); assay: Autologous blood infusion ICH in rats; type: in vivo
# Experimental: FIGS. 4A-4N. Adaptoquin delivered post-injury reduces cell death and enhances functional recovery post injury in mice and rats. Adaptoquin's effects in mice are not associated with global shifts of iron out of the brain. FIG. 4A: Experimental design for schedule of delivery of adaptaquin post-ICH. 30 mg/kg was delivered post-injury and then daily for seven days during which behavioral analysis was done. Mice were sacrificed at day 7 for qPCR and Fluoro-jade staining. […] FIG. 4J: Protocol for adaptoquin treatment of rats with ICH. ICH is modeled by autologous blood infusion and not collagenase in these studies. Behavior is tracked by a single pellet reaching task out to 28 days, but the schedule of infusion is similar to what is used in mice-2 hrs post blood infusion and then daily out to seven days. Behavior is monitored before, from 9-11 days and from 25-28 days. […] FIG. 4L: Protocol for evaluating the total concentrations of iron and zinc in brain following ICH in vehicle and adaptoquin treated mice. FIGS. 4M, 4N: Pseudocolored sections of collagenase induced ICH in mice after 7 days. […] These studies are consistent with the notion that adaptoquin works by inhibiting a specific metalloenzyme rather than global movement of metal ions.
# To determine whether adaptoquin could ameliorate outcomes using a distinct model of ICH in a distinct species, adaptoquin was tested it (30 mg/kg, intraperitoneal) in a model of autologous blood infusion in rats. Autologous blood infusion causes a narrower slit like lesion in the striatum than collagenase, but results in motor impairments out beyond 30 days. Adaptoquin (30 mg/kg) was administered two hours after autologous blood infusion and then daily for seven days.
# [3] = tested on: immortalized hippocampal neuroblasts (HT22 cells); assay: Hemin-induced toxicity in hippocampal neuroblasts (MTT); type: cell-based
# From the text: FIGS. 1A-1L: Structurally diverse HIF PHD inhibitors stabilize HIF-1 and abrogate toxicity induced by hemin, a byproduct of blood breakdown, in cortical neurons hippocampal neuroblasts and striatal neuroblasts (not shown).
# Secondary injury from ICH has been attributed to hemin, a breakdown product of hemoglobin (from lysed red blood cells). To investigate the mechanisms of hemin toxicity to neurons in vitro, this experiment exposed primary cortical neurons, immortalized hippocampal neuroblasts (HT22 cells), and immortalized striatal neuroblasts (Q7 cells) to hemin for 24 hours. As expected, a dose dependent loss in viability as measured by MTT reduction or LIVE/DEAD assay in all three cell types was observed. […] To examine whether iron-dependent HIF PHD enzymes can be modulated to protect neurons from hemin-induced toxicity, this experiment examined structurally diverse inhibitors of the HIF PHDs: desferoxamine, cyclopirox, and dihydroxybenzoic acid. […] To test this notion further using a chemical biological approach, the protective effects of cyclopirox, a HIF PHD inhibitor, and a cyclopirox analog with no PHD inhibitory activity but with similar metal binding affinity to cyclopirox were compared. As expected, only the cyclopirox analog with PHD inhibitory activity was neuroprotective. […]
# [4] = tested on: ATF4; assay: ATF4 hydroxylation (ATF4 immunoprecipitation, hydroxyproline immunoblot); type: cell-based
# [5] = tested on: primary cortical neurons; assay: Oxidative glutamate (homocysteate) toxicity in cortical neurons; type: cell-based, rat
# From the text: FIGS. 5A-5G. […] Because adaptoquin is a HIF PHD inhibitor that appears to work independent of HIF transcription factors, and because hemin induced death involves oxidative stress, the effect of adaptoquin on oxidative glutamate toxicity was examined. This form of toxicity is observed in primary cortical neurons from E17 rat embryos (2 DIV) and involves glutamate mediated inhibition of the amino acid cystine via its plasma membrane transporter. […] Accordingly, the optimal concentration of adaptoquin in protecting neurons was first determined and found to be about 1 micromolar. […] To determine the mechanism of adaptoquin, transcriptomic experiments were performed using non-protective and protective concentrations of drug harvesting RNA just prior to the time the cell's becoming insensitive to adaptoquin (16 hrs), as provided in FIG. 5C.
# To probe the mechanism of adaptoquin-induced neuroprotection, the study moved its attention to a well established model of oxidative stress in neurons induced by glutamate. Like hemin induced toxicity, oxidative glutamate toxicity is abrogated by forced expression of GPX4 (Alim et al., unpublished observations). However, oxidative glutamate toxicity has a much longer window before cells are committed to die (eighteen hours), facilitating analysis of primary events involved in cell death and protection. A detailed dose response and therapeutic window study was performed with adaptoquin in mouse cortical neurons exposed to glutamate or the glutamate analog, homocysteate. […] To probe the mechanism of this potent, delayed protection, a microarray transcriptomics study was performed using RNA from neuronal cultures that had been exposed to glutamate (or HCA) for 16 hours with vehicle, as well as non-protective (100 nM) and protective doses of adaptoquin (1 μM). Protective, but […] doses of adaptoquin reduced expression of a host of genes induced by oxidative stress including Tribbles homolog 3, methylene tetrahydrofolate reductase, the Xc-transporter, and stanniocalcin-2 hormone glycoprotein.
structure (smiles),measurement,setting,value
Oc1cccnc1NC(c1ccc(Cl)cc1)c1ccc2cccnc2c1O (stereo not shown) [adaptoquin],Message levels of p21 waf1/cip1 in brain,[1]; adaptoquin 30 mg/kg,increased message levels of p21 waf1/cip1
same,ODD-luciferase activity in brain,[1]; adaptoquin 30 mg/kg,significantly increase ODD-luciferase levels and activity
same,ODD-luciferase activity in brain,"[1]; adaptoquin 30 mg/kg, listed as Adaptoquin",inhibits the HIF PHDs in brain in a dose dependent fashion
same,ODD-luciferase activity in lysates from different brain regions,[1],An increase in activity
same,ODD-luciferase activity in lysates from different brain regions,[1]; listed as Adaptoquin,dose dependent increases throughout the brain
same,Body weight,[2]; 30 mg/kg i.p.,no significant changes
same,Glucose levels,[2]; 30 mg/kg i.p.,no significant changes
same,Temperature,[2]; 30 mg/kg i.p.,no significant changes
same,Single pellet reaching task (percent correct),"[2]; 30 mg/kg i.p. 2 h after blood infusion then daily for seven days, later time points",significant improvements in percent correct; also recorded: improves single pellet reaching
same,Hemin-induced death / protection after HIF-1α or HIF-2α reduction (shRNA),[3],prevents hemin induced death independent of HIF-1 and HIF-2
same,ATF4 hydroxylation,[4],inhibits ATF4 hydroxylation
same,Protection against oxidative death,[5]; 0.1 micromolar (100 nM),non-protective
same,Protection against oxidative death,[5]; 1 micromolar,complete protection
same,Time after glutamate/homocysteate treatment at which the compound can still be added and protect,[5]; 1 micromolar,up to 16 hours
same,Protection against oxidative death,"[5]; 1 micromolar, listed as adaptaquin",protection is significant
same,Optimal concentration in protecting neurons,[5]; oxidative glutamate toxicity,about 1 micromolar
